# Measurements as given in patent US6566368B2, “Apomorphine-containing dosage form for ameliorating male erectile dysfunction” (Pentech Pharmaceuticals, Inc., priority 1994, dated 2003).
# How the values were obtained:
# [1] = test system: patients with psychogenic impotence; details: nicotine e.g. by smoking
# [2] = test system: patients with psychogenic impotence; details: patients on liquid sublingual apomorphine 10 mg and 20 mg
SMILES,"counteraction of adverse effects of the 5 mg apomorphine dose (nausea, diaphoresis, etc.) [1]","counteraction of apomorphine adverse effects (nausea, vomiting, diaphoresis, etc.) [2]"
O=c1[nH]c2ccccc2n1CCCN1CCC(n2c(=O)[nH]c3cc(Cl)ccc32)CC1 [Domperidone],can be counteracted,can be counteracted
CN1CCCC1c1cccnc1 (stereo not drawn) [nicotine],can be counteracted,
